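Where inhibition never reached the appropriate level, the endpoint shown equals the highest concentration tested. Otherwise, values were interpolated linearly from a five-concentration, 48-hour dose response in 96-well plates. Abbreviation: GI50, concentration required for 50% inhibition of growth.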 Calls of active or inactive are those of the source. Cut-off read from the data, not from the text of the source: active = GI50 up to about 1.1 µM and inactive = higher.
How the values were obtained:
Assay in all cases: DTP human tumour cell line panel, 48 h
[1] = tested on: 786-0
[2] = tested on: A498
[3] = tested on: A549
[4] = tested on: ACHN
[5] = tested on: BT-549
[6] = tested on: CAKI-1
[7] = tested on: CCRF-CEM
[8] = tested on: COLO 205
[9] = tested on: DU-145
[10] = tested on: EKVX
[11] = tested on: HCC 2998
[12] = tested on: HCT-116
[13] = tested on: HCT-15
[14] = tested on: HOP-62
[15] = tested on: HT-29
[16] = tested on: Hs-578T
[17] = tested on: IGROV-1
[18] = tested on: K562
[19] = tested on: KM12
[20] = tested on: LOX IMVI
[21] = tested on: M14
[22] = tested on: MCF7
[23] = tested on: MDA-MB-231
[24] = tested on: MDA-MB-435
[25] = tested on: MDA-N
[26] = tested on: MOLT-4
[27] = tested on: Malme-3M
[28] = tested on: NCI-H226
[29] = tested on: NCI-H460
[30] = tested on: NCI-H522
[31] = tested on: NCI/ADR-RES
[32] = tested on: OVCAR-3
[33] = tested on: OVCAR-4
[34] = tested on: OVCAR-5
[35] = tested on: OVCAR-8
[36] = tested on: PC-3
[37] = tested on: RPMI-8226
[38] = tested on: RXF 393
[39] = tested on: SF-268
[40] = tested on: SF-295
[41] = tested on: SK-MEL-28
[42] = tested on: SK-MEL-2
[43] = tested on: SK-MEL-5
[44] = tested on: SK-OV-3
[45] = tested on: SN12C
[46] = tested on: SNB-19
[47] = tested on: SNB-75
[48] = tested on: SR
[49] = tested on: SW-620
[50] = tested on: T47D
[51] = tested on: TK-10
[52] = tested on: U-251
[53] = tested on: UACC-257
[54] = tested on: UACC-62
[55] = tested on: UO-31

`Cc1ccc2c(c1)C(=S)N1CSCC1c1nncn1-2` (stereo not given) was tested. Which GI50 [1] did it give?
The GI50 was > 100 µM (inactive).

What about the GI50 [2] of the same molecule?
Its GI50 is > 100 µM (inactive).

What about the GI50 [3] of the same molecule?
The GI50 was > 100 µM (inactive).

And the GI50 [4]?
The GI50 was > 100 µM (inactive).

What about the GI50 [5] of the same molecule?
The GI50 was > 100 µM (inactive).

And the GI50 [6]?
The GI50 was > 100 µM (inactive).

What about the GI50 [7] of the same molecule?
The GI50 was > 100 µM (inactive).

What about the GI50 [8] of the same molecule?
Its GI50 is > 100 µM (inactive).

What about the GI50 [9] of the same molecule?
Its GI50 is > 100 µM (inactive).

What about the GI50 [10] of the same molecule?
Its GI50 is > 100 µM (inactive).

And the GI50 [11]?
Its GI50 is > 100 µM (inactive).

And the GI50 [12]?
The GI50 was > 100 µM (inactive).

And the GI50 [13]?
The GI50 was greater than 100 µM.

And the GI50 [14]?
Its GI50 is > 100 µM (inactive).

What about the GI50 [15] of the same molecule?
The GI50 was > 100 µM (inactive).

And the GI50 [16]?
The GI50 was > 100 µM (inactive).

And the GI50 [17]?
Its GI50 is > 100 µM (inactive).

And the GI50 [18]?
Its GI50 is > 100 µM (inactive).

What about the GI50 [19] of the same molecule?
Its GI50 is > 100 µM (inactive).

What about the GI50 [20] of the same molecule?
Its GI50 is > 100 µM (inactive).

And the GI50 [21]?
Its GI50 is > 100 µM (inactive).

And the GI50 [22]?
The GI50 was > 100 µM (inactive).

What about the GI50 [23] of the same molecule?
Its GI50 is > 100 µM (inactive).

What about the GI50 [24] of the same molecule?
The GI50 was > 100 µM (inactive).

What about the GI50 [25] of the same molecule?
The GI50 was > 100 µM (inactive).

What about the GI50 [26] of the same molecule?
Its GI50 is > 100 µM (inactive).

And the GI50 [27]?
The GI50 was > 100 µM (inactive).

And the GI50 [28]?
Its GI50 is > 100 µM (inactive).

What about the GI50 [29] of the same molecule?
Its GI50 is > 100 µM (inactive).

And the GI50 [30]?
The GI50 was > 100 µM (inactive).

What about the GI50 [31] of the same molecule?
Its GI50 is > 100 µM (inactive).

And the GI50 [32]?
Its GI50 is > 100 µM (inactive).

And the GI50 [33]?
Its GI50 is > 100 µM (inactive).

And the GI50 [34]?
The GI50 was > 100 µM (inactive).

What about the GI50 [35] of the same molecule?
The GI50 was > 100 µM (inactive).

What about the GI50 [36] of the same molecule?
The GI50 was > 100 µM (inactive).

What about the GI50 [37] of the same molecule?
The GI50 was > 100 µM (inactive).

What about the GI50 [38] of the same molecule?
The GI50 was > 100 µM (inactive).

And the GI50 [39]?
Its GI50 is > 100 µM (inactive).

What about the GI50 [40] of the same molecule?
The GI50 was > 100 µM (inactive).

What about the GI50 [41] of the same molecule?
The GI50 was > 100 µM (inactive).

What about the GI50 [42] of the same molecule?
The GI50 was > 100 µM (inactive).

And the GI50 [43]?
The GI50 was > 100 µM (inactive).

What about the GI50 [44] of the same molecule?
The GI50 was > 100 µM (inactive).

What about the GI50 [45] of the same molecule?
Its GI50 is > 100 µM (inactive).

And the GI50 [46]?
The GI50 was > 100 µM (inactive).

What about the GI50 [47] of the same molecule?
Its GI50 is > 100 µM (inactive).

What about the GI50 [48] of the same molecule?
Its GI50 is > 100 µM (inactive).

And the GI50 [49]?
Its GI50 is > 100 µM (inactive).

And the GI50 [50]?
Its GI50 is > 100 µM (inactive).

What about the GI50 [51] of the same molecule?
The GI50 was > 100 µM (inactive).

And the GI50 [52]?
Its GI50 is > 100 µM (inactive).

What about the GI50 [53] of the same molecule?
The GI50 was > 100 µM (inactive).

What about the GI50 [54] of the same molecule?
The GI50 was > 100 µM (inactive).

What about the GI50 [55] of the same molecule?
Its GI50 is > 100 µM (inactive).

— ChEMBL document CHEMBL1201862, “PubChem BioAssay data set” (2004)
